Laboratory results as given in ChEMBL document CHEMBL5338818, “Discovery of the First Potent, Selective, and In Vivo Efficacious Polo-like Kinase 4 Proteolysis Targeting Chimera Degrader for the Treatment of TRIM37-Amplified Breast Cancer” (J Med Chem, 2023).

Biological target: T1, Protein cereblon/Serine/threonine-protein kinase PLK4 (Homo sapiens, UniProt O00444+Q96SW2)
Test: Protac activity at CRBN/PLK4 in human MCF7 cells at 1 uM incubated for 48 hrs by Western blot analysis
Type: cell-based

T1 sequence (Q96SW2 whole entry, looked up, one chain of several): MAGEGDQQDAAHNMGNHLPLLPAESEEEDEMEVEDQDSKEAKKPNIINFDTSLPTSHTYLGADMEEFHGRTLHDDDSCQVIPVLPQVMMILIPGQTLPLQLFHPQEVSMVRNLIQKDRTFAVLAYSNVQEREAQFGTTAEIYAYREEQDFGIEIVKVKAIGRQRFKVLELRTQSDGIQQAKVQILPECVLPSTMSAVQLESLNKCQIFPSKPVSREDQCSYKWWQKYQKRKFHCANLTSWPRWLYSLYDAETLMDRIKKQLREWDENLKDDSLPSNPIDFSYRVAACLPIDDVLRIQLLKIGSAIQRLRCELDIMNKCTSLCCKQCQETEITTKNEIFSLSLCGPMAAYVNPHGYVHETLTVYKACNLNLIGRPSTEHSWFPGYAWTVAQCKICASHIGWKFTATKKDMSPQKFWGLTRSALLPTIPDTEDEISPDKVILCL

Structure (SMILES)	Activity [%]
Cc1cc(Nc2nc(NCc3ccc(F)cc3F)nc3c2cnn3C2CCN(C(=O)COc3ccc4c(c3)C(=O)N(C3CCC(=O)NC3=O)C4=O)CC2)n[nH]1 (stereo not given)	28.5
Cc1cc(Nc2nc(NCc3ccc(F)cc3F)nc3c2cnn3C2CCN(C(=O)CCCCCOc3ccc4c(c3)C(=O)N(C3CCC(=O)NC3=O)C4=O)CC2)n[nH]1 (stereo not given)	46.7
Cc1cc(Nc2nc(NCc3ccc(F)cc3F)nc3c2cnn3C2CCN(C(=O)CCCCCCCCCCCCCOc3ccc4c(c3)C(=O)N(C3CCC(=O)NC3=O)C4=O)CC2)n[nH]1 (stereo not given)	22.8
Cc1cc(Nc2nc(NCc3ccc(F)cc3F)nc3c2cnn3C2CCN(C(=O)CCCCCCCOc3ccc4c(c3)C(=O)N(C3CCC(=O)NC3=O)C4=O)CC2)n[nH]1 (stereo not given)	38.9
Cc1cc(Nc2nc(NCc3ccc(F)cc3F)nc3c2cnn3C2CCN(C(=O)CCCCCCCCCCCCCCCOc3ccc4c(c3)C(=O)N(C3CCC(=O)NC3=O)C4=O)CC2)n[nH]1 (stereo not given)	37.8
Cc1cc(Nc2nc(NCc3ccc(F)cc3F)nc3c2cnn3C2CCN(C(=O)C3CC4(C3)CN(c3ccc5c(c3)C(=O)N(C3CCC(=O)NC3=O)C5=O)C4)CC2)n[nH]1 (stereo not given)	2.39
Cc1cc(Nc2nc(NCc3ccc(F)cc3F)nc3c2cnn3C2CCN(CC3CC4(C3)CN(c3ccc5c(c3)C(=O)N(C3CCC(=O)NC3=O)C5=O)C4)CC2)n[nH]1 (stereo not given)	6.07
Cc1cc(Nc2nc(NCc3ccc(F)cc3F)nc3c2cnn3C2CCN(C(=O)CC3CCN(c4ccc5c(c4)C(=O)N(C4CCC(=O)NC4=O)C5=O)C3)CC2)n[nH]1 (stereo not given)	48.9
Cc1cc(Nc2nc(NCc3ccc(F)cc3F)nc3c2cnn3C2CCN(C(=O)CCCCCCCCCOc3ccc4c(c3)C(=O)N(C3CCC(=O)NC3=O)C4=O)CC2)n[nH]1 (stereo not given)	103
Cc1cc(Nc2nc(NCc3ccc(F)cc3F)nc3c2cnn3C2CCN(CC3CN(c4ccc5c(c4)C(=O)N(C4CCC(=O)NC4=O)C5=O)C3)CC2)n[nH]1 (stereo not given)	31.1
Cc1cc(Nc2nc(NCc3ccc(F)cc3F)nc3c2cnn3C2CCN(C(=O)CCCCCCCCCCCCCCCCCOc3ccc4c(c3)C(=O)N(C3CCC(=O)NC3=O)C4=O)CC2)n[nH]1 (stereo not given)	46.8
Cc1cc(Nc2nc(NCc3ccc(F)cc3F)nc3c2cnn3C2CCN(C(=O)CC3CC4(C3)CN(c3ccc5c(c3)C(=O)N(C3CCC(=O)NC3=O)C5=O)C4)CC2)n[nH]1 (stereo not given)	5.49
Cc1cc(Nc2nc(NCc3ccc(F)cc3F)nc3c2cnn3C2CCN(Cc3ccc(C4CCN(c5ccc6c(c5)C(=O)N(C5CCC(=O)NC5=O)C6=O)CC4)cc3)CC2)n[nH]1 (stereo not given)	3.11

Biological target: T1, Protein cereblon/Serine/threonine-protein kinase PLK4
Test: Protac activity at CRBN/PLK4 in human MCF7 cells at 0.1 uM incubated for 48 hrs by Western blot analysis
Type: cell-based

Structure (SMILES)	Activity [%]
Cc1cc(Nc2nc(NCc3ccc(F)cc3F)nc3c2cnn3C2CCN(C(=O)COc3ccc4c(c3)C(=O)N(C3CCC(=O)NC3=O)C4=O)CC2)n[nH]1 (stereo not given)	25.3
Cc1cc(Nc2nc(NCc3ccc(F)cc3F)nc3c2cnn3C2CCN(C(=O)CCCCCOc3ccc4c(c3)C(=O)N(C3CCC(=O)NC3=O)C4=O)CC2)n[nH]1 (stereo not given)	31.3
Cc1cc(Nc2nc(NCc3ccc(F)cc3F)nc3c2cnn3C2CCN(C(=O)CCCCCCCCCCCCCOc3ccc4c(c3)C(=O)N(C3CCC(=O)NC3=O)C4=O)CC2)n[nH]1 (stereo not given)	11.6
Cc1cc(Nc2nc(NCc3ccc(F)cc3F)nc3c2cnn3C2CCN(C(=O)CCCCCCCOc3ccc4c(c3)C(=O)N(C3CCC(=O)NC3=O)C4=O)CC2)n[nH]1 (stereo not given)	30.2
Cc1cc(Nc2nc(NCc3ccc(F)cc3F)nc3c2cnn3C2CCN(C(=O)CCCCCCCCCCCCCCCOc3ccc4c(c3)C(=O)N(C3CCC(=O)NC3=O)C4=O)CC2)n[nH]1 (stereo not given)	24.1
Cc1cc(Nc2nc(NCc3ccc(F)cc3F)nc3c2cnn3C2CCN(C(=O)C3CC4(C3)CN(c3ccc5c(c3)C(=O)N(C3CCC(=O)NC3=O)C5=O)C4)CC2)n[nH]1 (stereo not given)	0.28
Cc1cc(Nc2nc(NCc3ccc(F)cc3F)nc3c2cnn3C2CCN(CC3CC4(C3)CN(c3ccc5c(c3)C(=O)N(C3CCC(=O)NC3=O)C5=O)C4)CC2)n[nH]1 (stereo not given)	4.12
Cc1cc(Nc2nc(NCc3ccc(F)cc3F)nc3c2cnn3C2CCN(C(=O)CC3CCN(c4ccc5c(c4)C(=O)N(C4CCC(=O)NC4=O)C5=O)C3)CC2)n[nH]1 (stereo not given)	39.2
Cc1cc(Nc2nc(NCc3ccc(F)cc3F)nc3c2cnn3C2CCN(C(=O)CCCCCCCCCOc3ccc4c(c3)C(=O)N(C3CCC(=O)NC3=O)C4=O)CC2)n[nH]1 (stereo not given)	2.81
Cc1cc(Nc2nc(NCc3ccc(F)cc3F)nc3c2cnn3C2CCN(CC3CN(c4ccc5c(c4)C(=O)N(C4CCC(=O)NC4=O)C5=O)C3)CC2)n[nH]1 (stereo not given)	2.33
Cc1cc(Nc2nc(NCc3ccc(F)cc3F)nc3c2cnn3C2CCN(C(=O)CCCCCCCCCCCCCCCCCOc3ccc4c(c3)C(=O)N(C3CCC(=O)NC3=O)C4=O)CC2)n[nH]1 (stereo not given)	20.2
Cc1cc(Nc2nc(NCc3ccc(F)cc3F)nc3c2cnn3C2CCN(C(=O)CC3CC4(C3)CN(c3ccc5c(c3)C(=O)N(C3CCC(=O)NC3=O)C5=O)C4)CC2)n[nH]1 (stereo not given)	1.84
Cc1cc(Nc2nc(NCc3ccc(F)cc3F)nc3c2cnn3C2CCN(Cc3ccc(C4CCN(c5ccc6c(c5)C(=O)N(C5CCC(=O)NC5=O)C6=O)CC4)cc3)CC2)n[nH]1 (stereo not given)	1.05

Biological target: T1, Protein cereblon/Serine/threonine-protein kinase PLK4
Test: Protac activity at CRBN/PLK4 in human MCF7 cells at 10 uM incubated for 48 hrs by Western blot analysis
Type: cell-based

Structure (SMILES)	Activity [%]
Cc1cc(Nc2nc(NCc3ccc(F)cc3F)nc3c2cnn3C2CCN(C(=O)COc3ccc4c(c3)C(=O)N(C3CCC(=O)NC3=O)C4=O)CC2)n[nH]1 (stereo not given)	43.9
Cc1cc(Nc2nc(NCc3ccc(F)cc3F)nc3c2cnn3C2CCN(C(=O)CCCCCOc3ccc4c(c3)C(=O)N(C3CCC(=O)NC3=O)C4=O)CC2)n[nH]1 (stereo not given)	57.7
Cc1cc(Nc2nc(NCc3ccc(F)cc3F)nc3c2cnn3C2CCN(C(=O)CCCCCCCCCCCCCOc3ccc4c(c3)C(=O)N(C3CCC(=O)NC3=O)C4=O)CC2)n[nH]1 (stereo not given)	35.9
Cc1cc(Nc2nc(NCc3ccc(F)cc3F)nc3c2cnn3C2CCN(C(=O)CCCCCCCOc3ccc4c(c3)C(=O)N(C3CCC(=O)NC3=O)C4=O)CC2)n[nH]1 (stereo not given)	50.3
Cc1cc(Nc2nc(NCc3ccc(F)cc3F)nc3c2cnn3C2CCN(C(=O)CCCCCCCCCCCCCCCOc3ccc4c(c3)C(=O)N(C3CCC(=O)NC3=O)C4=O)CC2)n[nH]1 (stereo not given)	43.5
Cc1cc(Nc2nc(NCc3ccc(F)cc3F)nc3c2cnn3C2CCN(C(=O)C3CC4(C3)CN(c3ccc5c(c3)C(=O)N(C3CCC(=O)NC3=O)C5=O)C4)CC2)n[nH]1 (stereo not given)	4.01
Cc1cc(Nc2nc(NCc3ccc(F)cc3F)nc3c2cnn3C2CCN(C(=O)CCCCCCCCCOc3ccc4c(c3)C(=O)N(C3CCC(=O)NC3=O)C4=O)CC2)n[nH]1 (stereo not given)	23.6
Cc1cc(Nc2nc(NCc3ccc(F)cc3F)nc3c2cnn3C2CCN(CC3CN(c4ccc5c(c4)C(=O)N(C4CCC(=O)NC4=O)C5=O)C3)CC2)n[nH]1 (stereo not given)	42.2
Cc1cc(Nc2nc(NCc3ccc(F)cc3F)nc3c2cnn3C2CCN(C(=O)CCCCCCCCCCCCCCCCCOc3ccc4c(c3)C(=O)N(C3CCC(=O)NC3=O)C4=O)CC2)n[nH]1 (stereo not given)	58.1
Cc1cc(Nc2nc(NCc3ccc(F)cc3F)nc3c2cnn3C2CCN(C(=O)CC3CC4(C3)CN(c3ccc5c(c3)C(=O)N(C3CCC(=O)NC3=O)C5=O)C4)CC2)n[nH]1 (stereo not given)	24.3
Cc1cc(Nc2nc(NCc3ccc(F)cc3F)nc3c2cnn3C2CCN(Cc3ccc(C4CCN(c5ccc6c(c5)C(=O)N(C5CCC(=O)NC5=O)C6=O)CC4)cc3)CC2)n[nH]1 (stereo not given)	7.32

Biological target: T2, Serine/threonine-protein kinase PLK4 (Homo sapiens, UniProt O00444)
T2 sequence (O00444 whole entry): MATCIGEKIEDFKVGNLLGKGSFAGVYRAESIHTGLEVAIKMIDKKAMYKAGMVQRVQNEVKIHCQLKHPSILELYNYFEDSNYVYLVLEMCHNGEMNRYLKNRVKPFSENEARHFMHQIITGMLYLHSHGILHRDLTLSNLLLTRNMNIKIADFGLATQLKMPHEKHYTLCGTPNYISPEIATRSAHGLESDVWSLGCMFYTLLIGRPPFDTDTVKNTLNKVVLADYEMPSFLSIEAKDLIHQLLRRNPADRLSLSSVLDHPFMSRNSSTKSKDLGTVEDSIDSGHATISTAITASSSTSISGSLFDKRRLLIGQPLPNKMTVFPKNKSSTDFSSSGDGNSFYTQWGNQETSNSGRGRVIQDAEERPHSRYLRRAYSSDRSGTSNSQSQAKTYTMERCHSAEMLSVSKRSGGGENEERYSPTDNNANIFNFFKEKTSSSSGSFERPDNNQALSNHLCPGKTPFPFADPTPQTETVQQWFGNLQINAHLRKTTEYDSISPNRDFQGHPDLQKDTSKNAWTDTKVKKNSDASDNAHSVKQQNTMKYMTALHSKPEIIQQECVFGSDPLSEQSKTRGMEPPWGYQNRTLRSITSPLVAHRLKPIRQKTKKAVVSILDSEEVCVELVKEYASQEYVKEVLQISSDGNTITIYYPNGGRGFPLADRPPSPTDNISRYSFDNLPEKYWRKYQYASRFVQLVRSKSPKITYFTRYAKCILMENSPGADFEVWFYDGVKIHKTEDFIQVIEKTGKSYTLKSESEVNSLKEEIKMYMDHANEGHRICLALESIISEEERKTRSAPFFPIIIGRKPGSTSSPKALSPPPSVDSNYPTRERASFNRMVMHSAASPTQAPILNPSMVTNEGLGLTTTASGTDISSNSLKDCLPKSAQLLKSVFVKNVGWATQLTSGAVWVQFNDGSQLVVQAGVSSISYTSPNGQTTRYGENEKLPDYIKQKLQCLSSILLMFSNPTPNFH
Test: Inhibition of PLK4 (unknown origin) incubated for 1 hr in presence of kinase tracer 236 by FRET assay

Structure (SMILES)	IC50 [nM]
Cc1cc(Nc2nc(NCc3ccc(F)cc3F)nc3c2cnn3C2CCN(C(=O)COc3ccc4c(c3)C(=O)N(C3CCC(=O)NC3=O)C4=O)CC2)n[nH]1 (stereo not given)	5.6
Cc1cc(Nc2nc(NCc3ccc(F)cc3F)nc3c2cnn3C2CCN(C(=O)CCCCCOc3ccc4c(c3)C(=O)N(C3CCC(=O)NC3=O)C4=O)CC2)n[nH]1 (stereo not given)	5.5
Cc1cc(Nc2nc(NCc3ccc(F)cc3F)nc3c2cnn3C2CCN(C(=O)CCCCCCCCCCCCCOc3ccc4c(c3)C(=O)N(C3CCC(=O)NC3=O)C4=O)CC2)n[nH]1 (stereo not given)	154
Cc1cc(Nc2nc(NCc3ccc(F)cc3F)nc3c2cnn3C2CCN(C(=O)CCCCCCCOc3ccc4c(c3)C(=O)N(C3CCC(=O)NC3=O)C4=O)CC2)n[nH]1 (stereo not given)	42.2
Cc1cc(Nc2nc(NCc3ccc(F)cc3F)nc3c2cnn3C2CCN(C(=O)CCCCCCCCCCCCCCCOc3ccc4c(c3)C(=O)N(C3CCC(=O)NC3=O)C4=O)CC2)n[nH]1 (stereo not given)	121
Cc1cc(Nc2nc(NCc3ccc(F)cc3F)nc3c2cnn3C2CCN(C(=O)C3CC4(C3)CN(c3ccc5c(c3)C(=O)N(C3CCC(=O)NC3=O)C5=O)C4)CC2)n[nH]1 (stereo not given)	75.2
Cc1cc(Nc2nc(NCc3ccc(F)cc3F)nc3c2cnn3C2CCN(CC3CC4(C3)CN(c3ccc5c(c3)C(=O)N(C3CCC(=O)NC3=O)C5=O)C4)CC2)n[nH]1 (stereo not given)	42.3
Cc1cc(Nc2nc(NCc3ccc(F)cc3F)nc3c2cnn3C2CCN(C(=O)CC3CCN(c4ccc5c(c4)C(=O)N(C4CCC(=O)NC4=O)C5=O)C3)CC2)n[nH]1 (stereo not given)	8.1
Cc1cc(Nc2nc(NCc3ccc(F)cc3F)nc3c2cnn3C2CCN(C(=O)CCCCCCCCCOc3ccc4c(c3)C(=O)N(C3CCC(=O)NC3=O)C4=O)CC2)n[nH]1 (stereo not given)	1080
Cc1cc(Nc2nc(NCc3ccc(F)cc3F)nc3c2cnn3C2CCN(CC3CN(c4ccc5c(c4)C(=O)N(C4CCC(=O)NC4=O)C5=O)C3)CC2)n[nH]1 (stereo not given)	10.1
Cc1cc(Nc2nc(NCc3ccc(F)cc3F)nc3c2cnn3C2CCN(C(=O)CCCCCCCCCCCCCCCCCOc3ccc4c(c3)C(=O)N(C3CCC(=O)NC3=O)C4=O)CC2)n[nH]1 (stereo not given)	19.6
Cc1cc(Nc2nc(NCc3ccc(F)cc3F)nc3c2cnn3C2CCN(C(=O)CC3CC4(C3)CN(c3ccc5c(c3)C(=O)N(C3CCC(=O)NC3=O)C5=O)C4)CC2)n[nH]1 (stereo not given)	61.1
Cc1cc(Nc2nc(NCc3ccc(F)cc3F)nc3c2cnn3C2CCN(Cc3ccc(C4CCN(c5ccc6c(c5)C(=O)N(C5CCC(=O)NC5=O)C6=O)CC4)cc3)CC2)n[nH]1 (stereo not given)	106
